Data on eleven compounds can be found in US7608619B2, “Substituted oxazole compounds with analgesic activity” (Gruenenthal GmbH, priority 2005, dated 2009).

This test deals with T1, human μ-opiate receptor (Homo sapiens, UniProt P35372).
T1 construct: purchased Nen company, Zaventem, Belgium RB-HOM; host or cells: CHO-K1 cells (membrane preparation)
T1 sequence (P35372 whole entry): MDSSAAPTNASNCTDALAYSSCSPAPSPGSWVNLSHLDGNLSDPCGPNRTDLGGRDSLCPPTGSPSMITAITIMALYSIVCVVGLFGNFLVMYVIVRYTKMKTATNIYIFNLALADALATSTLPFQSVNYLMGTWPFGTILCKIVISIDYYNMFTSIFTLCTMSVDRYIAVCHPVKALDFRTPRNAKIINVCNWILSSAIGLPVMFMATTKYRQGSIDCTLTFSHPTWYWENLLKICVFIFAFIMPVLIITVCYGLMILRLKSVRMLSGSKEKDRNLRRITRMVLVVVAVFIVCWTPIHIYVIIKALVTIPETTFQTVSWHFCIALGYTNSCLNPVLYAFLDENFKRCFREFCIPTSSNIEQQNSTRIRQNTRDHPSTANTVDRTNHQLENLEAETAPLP
The test is described as follows: Affinity for the human μ-opiate receptor ([3H]-naloxone displacement, SPA, CHO-K1 membrane preparation). Conditions: test substance 1 μmole/l; displacement of 1 nmole/l [3H]-naloxone; percentage inhibition of the specific binding; read-out: μ-opioid receptor, % inhibition [1 μM]. In outline:
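[3H]-naloxone (1 nmol/l) displacement by SPA with WGA beads, using membranes of CHO-K1 cells expressing the receptor, in 50 mmol/l Tris-HCl with 0.05% azide and 0.06% BSA; 90 min at room temperature. Non-specific binding defined with 25 μmol/l naloxone. Value is % inhibition of specific binding at 1 μmol/l test compound.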
`CCN(CC)C(CC1CCC(C(c2cccs2)N(C)C)CC1)c1nc(Cc2ccccc2)c(N2CC(C)CC(C)C2)o1` (centres unmarked) [compound 112, {1-[4-benzyl-5-(3,5-dimethylpiperidin-1-yl)-oxazol-2-yl]-2-[4-(dimethylamino-thiophen-2-yl-methyl)-cyclohexyl]-ethyl}-diethylamine]: the inhibition at 1 µM was 89%.

For the compound `CCN(CC)C(CC1CCC(C(c2cccs2)N(C)C)CC1)c1nc(Cc2ccccc2)c(N(C)CCc2ccccc2)o1` (centres unmarked) [compound 113, (4-benzyl-2-{1-diethylamino-2-[4-(dimethylaminothiophen-2-yl-methyl)-cyclohexyl]-ethyl}-oxazol-5-yl)-methylphenethylamine], the inhibition at 1 µM is 97%.

In the case of `CCN(CC)c1oc(C(CC2CCC(C(c3cccs3)N(C)C)CC2)N(CC)CC)nc1Cc1ccccc1` (centres unmarked) [compound 114, (4-benzyl-2-{1-diethylamino-2-[4-(dimethylaminothiophen-2-yl-methyl)-cyclohexyl]-ethyl}-oxazol-5-yl)-diethylamine], the inhibition at 1 µM stood at 94%.

For `CCN(CC)C(CC1CCC(C(c2cccs2)N(C)C)CC1)c1nc(Cc2ccccc2)c(N2CCSCC2)o1` (centres unmarked) [compound 115, {1-(4-benzyl-5-thiomorpholin-4-yl-oxazol-2-yl)-2-[4-(dimethylamino-thiophen-2-yl-methyl)-cyclohexyl]-ethyl}-diethylamine], the inhibition at 1 µM amounted to 93%.

With `CCN(CC)C(CC1CCC(C(c2cccs2)N(C)C)CC1)c1nc(Cc2ccccc2)c(N2CCCC(C)C2)o1` (centres unmarked) [compound 116, {1-[4-benzyl-5-(3-methylpiperidin-1-yl)-oxazol-2-yl]-2-[4-(dimethylamino-thiophen-2-yl-methyl)-cyclohexyl]-ethyl}-diethylamine], the inhibition at 1 µM is 94%.

Turning to `CC1CCCN(c2oc(C(CC3CCC(C(c4cccs4)N(C)C)CC3)N(C)c3ccccc3)nc2Cc2ccccc2)C1` (centres unmarked) [compound 117, {1-[4-benzyl-5-(3-methylpiperidin-1-yl)-oxazol-2-yl]-2-[4-(dimethylamino-thiophen-2-yl-methyl)-cyclohexyl]-ethyl}-methylphenylamine], the inhibition at 1 µM was found to be 99%.

In the case of `CN(C)C(c1cccs1)C1CCC(CC(c2nc(Cc3ccccc3)c(N3CCSCC3)o2)N2CCN(Cc3ccccc3)CC2)CC1` (centres unmarked) [compound 118, ({4-[2-(4-benzylpiperazin-1-yl)-2-(4-benzyl-5-thiomorpholin-4-yl-oxazol-2-yl)-ethyl]-cyclohexyl}-thiophen-2-yl-methyl)-dimethylamine], the inhibition at 1 µM came out at 84%.

For the compound `CC1CCCN(c2oc(C(CC3CCC(C(c4cccs4)N(C)C)CC3)N3CCN(Cc4ccccc4)CC3)nc2Cc2ccccc2)C1` (centres unmarked) [compound 119, ({4-[2-[4-benzyl-5-(3-methylpiperidin-1-yl)-oxazol-2-yl]-2-(4-benzyl-piperazin-1-yl)-ethyl]-cyclohexyl}-thiophen-2-yl-methyl)-dimethylamine], the inhibition at 1 µM is 99%.

Take `CN(C)C(c1cccc(F)c1)C1CCC(C(c2nc(Cc3ccccc3)c(N3CCCC3)o2)N2CCOCC2)CC1` (centres unmarked) [compound 120, [{4-[(4-benzyl-5-pyrrolidin-1-yl-oxazol-2-yl)-morpholin-4-yl-methyl]-cyclohexyl}-(3-fluorophenyl)-methyl]-dimethylamine]: the inhibition at 1 µM was determined as 75%.

As to `CN(C)C(c1cccc(F)c1)C1CCC(C(c2nc(Cc3ccccc3)c(N3CCOCC3)o2)N2CCOCC2)CC1` (centres unmarked) [compound 121, [{4-[(4-benzyl-5-morpholin-4-yl-oxazol-2-yl)-morpholin-4-yl-methyl]-cyclohexyl}-(3-fluorophenyl)-methyl]-dimethylamine], the inhibition at 1 µM turned out to be 67%.

With `CN(C)C(c1cccc(F)c1)C1CCC(C(c2nc(Cc3ccccc3)c(N3CCCC3)o2)N2CCN(c3ccc(F)cc3)CC2)CC1` (centres unmarked) [compound 122, [(4-{(4-benzyl-5-pyrrolidin-1-yl-oxazol-2-yl)-[4-(4-fluorophenyl)-piperazin-1-yl]-methyl}-cyclohexyl)-(3-fluorophenyl)-methyl]-dimethylamine], the inhibition at 1 µM was found to be 72%.
